Data reported in patent US20210115018A1, “PIPERIDINE COMPOUNDS AS COVALENT MENIN INHIBITORS” (THE REGENTS OF THE UNIVERSITY OF MICHIGAN, priority 2018, published 2021).

Columns and labels:
menin protein = target: T1, menin protein (Homo sapiens, UniProt O00255); test: Fluorescence polarization (FP) competitive binding assay, menin binding affinity; conditions: FP competition with FAM-MM2 probe 2 nM, menin 4 nM, 30 minutes room temperature
T1 sequence (O00255 1-610): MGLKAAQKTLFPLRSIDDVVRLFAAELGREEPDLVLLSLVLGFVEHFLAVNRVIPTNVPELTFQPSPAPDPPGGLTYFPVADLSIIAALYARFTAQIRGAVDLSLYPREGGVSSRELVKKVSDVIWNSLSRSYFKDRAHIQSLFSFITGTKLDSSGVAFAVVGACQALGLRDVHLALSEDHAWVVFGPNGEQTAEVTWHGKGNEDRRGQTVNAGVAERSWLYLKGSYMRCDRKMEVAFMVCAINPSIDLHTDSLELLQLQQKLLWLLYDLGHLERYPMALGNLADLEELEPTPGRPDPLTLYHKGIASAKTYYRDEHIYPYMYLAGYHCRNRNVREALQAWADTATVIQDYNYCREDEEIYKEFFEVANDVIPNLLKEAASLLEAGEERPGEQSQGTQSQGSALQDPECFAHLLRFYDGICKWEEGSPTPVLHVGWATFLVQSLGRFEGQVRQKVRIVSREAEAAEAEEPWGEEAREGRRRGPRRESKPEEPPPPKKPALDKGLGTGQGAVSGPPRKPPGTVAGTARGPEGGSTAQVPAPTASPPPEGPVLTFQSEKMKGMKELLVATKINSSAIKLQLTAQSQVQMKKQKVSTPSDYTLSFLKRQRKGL
Experimental: A fluorescence polarization (FP) competitive binding assay was used to determine the binding affinities of representative menin inhibitors. A FAM labeled fluorescent probe was designed and synthesized based on a MLL1 peptide (FAM-MM2). Equilibrium dissociation constant (Kd) value of FAM-MM2 to menin protein was determined from protein saturation experiments by monitoring the total fluorescence polarization of mixtures composed with the fluorescent probe at a fixed concentration and the protein with increasing concentrations up to full saturation. Serial dilutions of the protein were mixed with FAM-MM2 to a final volume of 200 μl in the assay buffer (PBS with 0.02% Bovine γ-Globulin and 4% DMSO. 0.01% Triton X-100 was added right before assays). Final FAM-MM2 concentration was 2 nM. Plates were incubated at room temperature for 30 minutes with gentle shaking to assure equilibrium. FP values in millipolarization units (mP) were measured using the Infinite M-1000 plate reader (Tecan U.S., Research Triangle Park, N.C.) in Microfluor 1 96-well, black, v-bottom plates (Thermo Scientific, Waltham, Mass.) at an excitation wavelength of 485 nm and an emission wavelength of 530 nm.
The IC50 of representative Compounds of the Disclosure, see Table 3, were determined in a competitive binding experiment. Mixtures of 5 μl of the tested compounds in DMSO and 195 μl of preincubated protein/probe complex solution in the assay buffer were added into assay plates which were incubated at room temperature for 30 minutes with gentle shaking. Final concentration of the menin protein was 4 nM, and final probe concentration is 2 nM. Negative controls containing protein/probe complex only (equivalent to 0% inhibition), and positive controls containing only free probes (equivalent to 100% inhibition), were included in each assay plate. FP values were measured as described above. IC50 values were determined by nonlinear regression fitting of the competition curves.

MV4-11 = test: 7-day proliferation assay (WST-8), cell growth inhibition; assay type: cell-based; conditions: Homo sapiens, MV4-11, 168 h, MV4-11 cells, 7 days
Experimental: The effect of representative Compounds of the Disclosure on cell viability was determined in a 7-day proliferation assay. Cells were maintained in the appropriate culture medium with 10% FBS at 37° C. and an atmosphere of 5% CO2.
Cells were seeded in 96-well flat bottom (Corning COSTAR, Corning, NY, cat#3595) at a density of 2,000-3,000 cells/well in 100 μl of culture medium. Compounds were serially diluted in the appropriate medium, and […] the diluted compounds were added to the appropriate wells of the cell plate. After the addition of compounds, the cells were incubated at 37° C. in an atmosphere of 5% CO2 for 7 days. Cell viability was determined using the WST (2-(2-methoxy-4-nitrophenyl)-3-(4-nitrophenyl)-5-(2,4-disulfophenyl)-2H-tetrazolium, monosodium salt) Cell Counting-8 Kit (Dojindo Molecular Technologies, Inc., Rockville, Md.) according to the manufacturers' instructions.
WST-8 reagent was added to each well at a final concentration of 10% (v/v), and then the plates were incubated at 37° C. for 1-2 hours for color development. The absorbance was measured at 450 nm using a SPECTRAmax PLUS plate reader (Molecular Devices, Sunnyvale, Calif.). The readings were normalized to the DMSO-treated cells and the half maximal inhibitory concentration (IC50) was calculated by nonlinear regression (four parameters sigmoid fitted with variable slope, least squares fit, and no constraint) analysis using the GraphPad Prism 5 software (GraphPad Software, La Jolla, Calif.).

**Q.** Which IC50 (menin protein) does the source give for `C=C(CN1CCOCC1)C(=O)N1CC(S(=O)(=O)c2ccc(N3CC(CN4CCC([C@@](CN5CCC5)(c5cccc(F)c5)[C@H]5CCC[C@@H]5NC(=O)OC)CC4)C3)cc2)C1` [Cpd. No. 9, methyl ((1S,2R)-2-((S)-2-(azetidin-1-yl)-1-(3-fluorophenyl)-1-(1-((1-(4-((1-(2-(morpholinomethyl)acryloyl)azetidin-3-yl)sulfonyl)phenyl)azetidin-3-yl)methyl)piperidin-4-yl)ethyl)cyclopentyl)carbamate] here?
**A.** 2 nM

**Q.** And the IC50 (MV4-11)?
**A.** < 10 nM

**Q.** What does the source list for `C=C(CN(CC)CC)C(=O)N1CC(S(=O)(=O)c2ccc(N3CC(CN4CCC([C@@](CN5CCC5)(c5cccc(F)c5)[C@H]5CCC[C@@H]5NC(=O)OC)CC4)C3)cc2)C1` [Cpd. No. 21, methyl ((1S,2R)-2-((S)-2-(azetidin-1-yl)-1-(1-((1-(4-((1-(2-((diethylamino)methyl)acryloyl)azetidin-3-yl)sulfonyl)phenyl)azetidin-3-yl)methyl)piperidin-4-yl)-1-(3-fluorophenyl)ethyl)cyclopentyl)carbamate]?
**A.** IC50 (menin protein): 2 nM; IC50 (MV4-11): < 10 nM

**Q.** What does the source list for `C=C(CN1CCC1)C(=O)N1CC(S(=O)(=O)c2ccc(N3CC(CN4CCC([C@@](CN5CCC5)(c5cccc(F)c5)[C@H]5CCC[C@@H]5NC(=O)OC)CC4)C3)cc2)C1` [Cpd. No. 22, methyl ((1S,2R)-2-((S)-2-(azetidin-1-yl)-1-(1-((1-(4-((1-(2-(azetidin-1-ylmethyl)acryloyl)azetidin-3-yl)sulfonyl)phenyl)azetidin-3-yl)methyl)piperidin-4-yl)-1-(3-fluorophenyl)ethyl)cyclopentyl)carbamate]?
**A.** IC50 (menin protein): 2 nM; IC50 (MV4-11): < 10 nM

**Q.** With `C=C(CN1CCOCC1)C(=O)N1CC(S(=O)(=O)c2ccc(N3CC(CN4CCC([C@](CN5CCC5)(c5cccc(F)c5)[C@H]5CCC[C@@H]5NC(=O)OC)CC4)C3)cc2)C1` [Cpd. No. 27, methyl ((1S,2R)-2-((R)-2-(azetidin-1-yl)-1-(3-fluorophenyl)-1-(1-((1-(4-((1-(2-(morpholinomethyl)acryloyl)azetidin-3-yl)sulfonyl)phenyl)azetidin-3-yl)methyl)piperidin-4-yl)ethyl)cyclopentyl)carbamate] as the compound, how does the IC50 (menin protein) read?
**A.** 4 nM

**Q.** For `C=C(CN1CCOCC1)C(=O)N1CC(S(=O)(=O)c2ccc(N3CC(CN4CCC([C@@](C#N)(c5cccc(F)c5)[C@H]5CCC[C@@H]5NC(=O)OC)CC4)C3)cc2)C1` [Cpd. No. 28, methyl ((1S,2R)-2-((S)-cyano(3-fluorophenyl)(1-((1-(4-((1-(2-(morpholinomethyl)acryloyl)azetidin-3-yl)sulfonyl)phenyl)azetidin-3-yl)methyl)piperidin-4-yl)methyl)cyclopentyl)carbamate], which IC50 (menin protein) is on record?
**A.** 2 nM

**Q.** With `C=C(CN1CCCCC1)C(=O)N1CC(S(=O)(=O)c2ccc(N3CC(CN4CCC([C@@](C#N)(c5cccc(F)c5)[C@H]5CCC[C@@H]5NC(=O)OC)CC4)C3)cc2)C1` [Cpd. No. 29, methyl ((1S,2R)-2-((S)-cyano(3-fluorophenyl)(1-((1-(4-((1-(2-(piperidin-1-ylmethyl)acryloyl)azetidin-3-yl)sulfonyl)phenyl)azetidin-3-yl)methyl)piperidin-4-yl)methyl)cyclopentyl)carbamate] as the compound, how does the IC50 (menin protein) read?
**A.** 2 nM

**Q.** For `C=C(CN1CCOCC1)C(=O)N1CC(S(=O)(=O)c2cccc(N3CC(CN4CCC([C@@](CN5CCC5)(c5cccc(F)c5)[C@H]5CCC[C@@H]5NC(=O)OC)CC4)C3)c2)C1` [Cpd. No. 30, methyl ((1S,2R)-2-((S)-2-(azetidin-1-yl)-1-(3-fluorophenyl)-1-(1-((1-(3-((1-(2-(morpholinomethyl)acroyloyl)azetidin-3-yl)sulfonyl)phenyl)azetidin-3-yl)methyl)piperidin-4-yl)ethyl)cyclopentyl)carbamate], which IC50 (menin protein) is on record?
**A.** 5 nM

**Q.** Which IC50 (menin protein) does the source give for `COC(=O)N[C@H]1CCC[C@@H]1[C@@](CN1CCC1)(c1cccc(F)c1)C1CCN(CC2CN(c3ccc(S(=O)(=O)C4CN(C(=O)/C=C/CN5CCOCC5)C4)cc3)C2)CC1` [Cpd. No. 31, methyl ((1S,2R)-2-((R)-2-(azetidin-1-yl)-1-(3-fluorophenyl)-1-(1-((1-(4-((1-((E)-4-morpholinobut-2-enoyl)azetidin-3-yl)sulfonyl)phenyl)azetidin-3-yl)methyl)piperidin-4-yl)ethyl)cyclopentyl)carbamate] here?
**A.** 88 nM

**Q.** `C=CC(=O)Nc1cccc(S(=O)(=O)c2ccc(N3CC(CN4CCC([C@@](CN5CCC5)(c5cccc(F)c5)[C@H]5CCC[C@@H]5NC(=O)OC)CC4)C3)cc2)c1` [Cpd. No. 32, methyl ((1S,2R)-2-((S)-1-(1-((1-(4-((3-acrylamidophenyl)sulfonyl)phenyl)azetidin-3-yl)methyl)piperidin-4-yl)-2-(azetidin-1-yl)-1-(3-fluorophenyl)ethyl)cyclopentyl)carbamate] was tested. Which IC50 (menin protein) did it give?
**A.** 2 nM

**Q.** With `C=CC(=O)N1CCCC[C@H](S(=O)(=O)c2ccc(N3CC(CN4CCC([C@@](CN5CCC5)(c5cccc(F)c5)[C@H]5CCC[C@@H]5NC(=O)OC)CC4)(OC)C3)cc2)C1` [compound 234] as the compound, how does the IC50 (menin protein) read?
**A.** 4 nM

**Q.** Which IC50 (menin protein) does the source give for `C=CC(=O)N1CCCC[C@H](S(=O)(=O)c2ccc(N3CC(CN4CCC([C@@](CN5CCC5)(c5cccc(F)c5)[C@H]5CCC[C@@H]5NC(=O)OC)CC4)(OC)C3)c(F)c2)C1` [compound 235] here?
**A.** 4 nM

**Q.** With `C=CC(=O)N1CCCC[C@H](S(=O)(=O)c2ccc(N3CC(F)(CN4CCC([C@@](CN5CCC5)(c5cccc(F)c5)[C@H]5CCC[C@@H]5NC(=O)OC)CC4)C3)cc2)C1` [compound 236] as the compound, how does the IC50 (menin protein) read?
**A.** 4 nM

**Q.** For `C=CC(=O)N1CCCC[C@H](S(=O)(=O)c2ccc(N3CC(F)(CN4CCC([C@@](CN5CCC5)(c5cccc(F)c5)[C@H]5CCC[C@@H]5NC(=O)OC)CC4)C3)c(F)c2)C1` [compound 237], which IC50 (menin protein) is on record?
**A.** 4 nM

**Q.** Which IC50 (menin protein) does the source give for `C=CC(=O)N1CCN(C(C)=O)[C@H](CS(=O)(=O)c2ccc(N3CC(CN4CCC([C@@](CN5CCC5)(c5cccc(F)c5)[C@H]5CCC[C@@H]5NC(=O)OC)CC4)(OC)C3)cc2)C1` [compound 238] here?
**A.** 7 nM

**Q.** How did the IC50 (menin protein) turn out when `C=CC(=O)N1CCN(C(C)=O)[C@@H](CS(=O)(=O)c2ccc(N3CC(CN4CCC([C@@](CN5CCC5)(c5cccc(F)c5)[C@H]5CCC[C@@H]5NC(=O)OC)CC4)(OC)C3)cc2)C1` [compound 239] was run?
**A.** 6 nM

**Q.** For `C=CC(=O)N1CC2CC1CN2S(=O)(=O)c1ccc(N2CC(CN3CCC([C@@](CN4CCC4)(c4cccc(F)c4)[C@H]4CCC[C@@H]4NC(=O)OC)CC3)(OC)C2)cc1` (stereo partly drawn) [compound 240], which IC50 (menin protein) is on record?
**A.** 4 nM

**Q.** How did the IC50 (menin protein) turn out when `C=CC(=O)N1CCN(C(C)=O)CC(S(=O)(=O)c2ccc(N3CC(CN4CCC([C@@](CN5CCC5)(c5cccc(F)c5)[C@H]5CCC[C@@H]5NC(=O)OC)CC4)(OC)C3)cc2)C1` (stereo partly drawn) [compound 241] was run?
**A.** 10 nM

**Q.** Which IC50 (menin protein) does the source give for `C=CC(=O)N1CCN(C(=O)OC)CC(S(=O)(=O)c2ccc(N3CC(CN4CCC([C@@](CN5CCC5)(c5cccc(F)c5)[C@H]5CCC[C@@H]5NC(=O)OC)CC4)(OC)C3)cc2)C1` (stereo partly drawn) [compound 242] here?
**A.** 10 nM
